Experimental findings from ChEMBL document CHEMBL1143021, “Synthesis of xanthone derivatives with extended pi-systems as alpha-glucosidase inhibitors: insight into the probable binding mode” (Bioorg Med Chem, 2007) are described below.

The experiment can be described thus: Inhibition of yeast alpha glucosidase at pH 6.8. Also on record: species or system Saccharomyces cerevisiae.
As to `OC[C@H]1NC(O)C[C@@H](O)[C@@H]1O` (stereo not given in full), the IC50 came out at 26.4 µM. Compound `O=c1c2cc3cccc(O)c3cc2oc2cc(O)cc(O)c12` displayed an IC50 of 8 µM. The same measure for `O=c1c2ccccc2oc2cc(O)cc(O)c12`: 161 µM. As to `Oc1cc(O)c2c(c1)Oc1ccc3ccccc3c1C2`, the half-inhibitory concentration (IC50) came to 34.9 µM. `O=c1c2c(O)cc(O)cc2oc2ccc3ccccc3c12` yielded an IC50 of 39.9 µM. In the case of `O=c1c2cc3ccccc3cc2oc2cc(O)cc(O)c12`, half-maximal inhibition (IC50) was put at 9.3 µM. On to `O=c1c2cc3cc(O)ccc3cc2oc2cc(O)cc(O)c12`, for which inhibition was half-maximal at 5.8 µM (IC50). In turn, `O=c1c2cc3ccccc3cc2oc2c([N+](=O)[O-])c(O)cc(O)c12` came in with an IC50 of 20.1 µM. As to `Oc1cc(O)c2c(c1)Oc1cc3ccccc3cc1C2`, the IC50 was 27.8 µM.

As to `COc1cc(O)c2c(=O)c3cc4ccccc4cc3oc2c1`, inhibition was half-maximal at 31.3 µM (IC50).
